ChEMBL document CHEMBL3243918, “Synthesis and adrenergic beta-blocking activity of some 1,3-benzodioxole derivatives” (J Med Chem, 1977)
The source made the active and inactive calls. No cut-off for these calls is given here.

Tests used:
Cavia porcellus [1] = test: Toxicity in guinea pig assessed as depression in heart beating rate at 50 mg/kg, po relative to control; assay type: organism-based; set-up: dose 50 mg/kg, route oral; settings: in vivo
Cavia porcellus [2] = test: Hypotensive activity at guinea pig assessed as decrease in blood pressure at 50 mg/kg, po after 5 hrs (reference value: 112 +/- 2.6 to 122 +/- 2.7 mmHg); assay type: functional
Cavia porcellus [3] = test: Hypotensive activity at guinea pig assessed as decrease in blood pressure at 50 mg/kg, po after 3 hrs (reference value: 112 +/- 2.6 to 122 +/- 2.7 mmHg); assay type: functional
Cavia porcellus [4] = test: Hypotensive activity at guinea pig assessed as decrease in blood pressure at 50 mg/kg, po after 1 hr (reference value: 112 +/- 2.6 to 122 +/- 2.7 mmHg); assay type: functional
Cavia porcellus [5] = species: Cavia porcellus; test: Antagonist activity at guinea pig atrial beta adrenergic receptor assessed as isometric contractions at 5 x 10^-5 M by force displacement transducer; assay type: tissue-based; settings: Cardiac atrium
Cavia porcellus [6] = test: Hypotensive activity at guinea pig assessed as decrease in blood pressure at 100 mg/kg, po after 3 hrs; assay type: functional, organism-based; set-up: dose 100 mg/kg
Cavia porcellus [7] = test: Hypotensive activity at guinea pig assessed as decrease in blood pressure at 100 mg/kg, po after 1 hr; assay type: functional, organism-based; set-up: dose 100 mg/kg
Cavia porcellus [8] = test: Hypotensive activity at guinea pig assessed as decrease in blood pressure at 100 mg/kg, po after 5 hrs; assay type: functional, organism-based; set-up: dose 100 mg/kg
Cavia porcellus [9] = test: Toxicity in guinea pig assessed as increase in heart beating rate at 50 mg/kg, po; assay type: organism-based; set-up: dose 50 mg/kg, route oral; settings: in vivo
[10] = Antagonist activity at guinea pig atrial beta adrenergic receptor assessed as isometric contractions by force displacement transducer; assay type: tissue-based, Cavia porcellus, Cardiac atrium

CC(C)NC(C)C(O)c1ccc2c(c1)OCO2.Cl (stereo not given)
Activity (Cavia porcellus [1]): < 10% | Activity (Cavia porcellus [2]): 94 mmHg | Activity (Cavia porcellus [3]): 91 mmHg | Activity (Cavia porcellus [4]): 92 mmHg | Activity (Cavia porcellus [5]): inactive

c1cc2c(cc1CCNC1=NCCN1)OCO2
Activity (Cavia porcellus [6]): inactive | Activity (Cavia porcellus [7]): inactive | Activity (Cavia porcellus [8]): inactive | Activity (Cavia porcellus [5]): inactive

OC(CNC1=NCCN1)c1ccc2c(c1)OCO2 (stereo not given)
Activity (Cavia porcellus [6]): inactive | Activity (Cavia porcellus [7]): inactive | Activity (Cavia porcellus [8]): inactive | Activity (Cavia porcellus [5]): inactive

CC(C)NCC(O)c1ccc2c(c1)OCO2.Cl (stereo not given)
Activity (Cavia porcellus [2]): 87 mmHg | Activity (Cavia porcellus [3]): 84 mmHg | Activity (Cavia porcellus [4]): 97 mmHg | Activity (Cavia porcellus [9]): 25% | pA2 [10]: 6.2

CC(C)NCC(O)COC(=O)c1ccc2c(c1)OCO2.Cl (stereo not given)
Activity (Cavia porcellus [6]): inactive | Activity (Cavia porcellus [7]): inactive | Activity (Cavia porcellus [8]): inactive | pA2 [10]: 6.9

CC(C)NCC(O)/C=C/c1ccc2c(c1)OCO2 (stereo not given)
Activity (Cavia porcellus [6]): inactive | Activity (Cavia porcellus [7]): inactive | Activity (Cavia porcellus [8]): inactive | Activity (Cavia porcellus [5]): inactive

N=C(N)NCCc1ccc2c(c1)OCO2
Activity (Cavia porcellus [6]): inactive | Activity (Cavia porcellus [7]): inactive | Activity (Cavia porcellus [8]): inactive | Activity (Cavia porcellus [5]): inactive

CC(C)(C)NCC(O)c1ccc2c(c1)OCO2.Cl (stereo not given)
Activity (Cavia porcellus [2]): 77 mmHg | Activity (Cavia porcellus [3]): 77 mmHg | Activity (Cavia porcellus [4]): 83 mmHg | pA2 [10]: 6.5

N=C(N)NCC(O)c1ccc2c(c1)OCO2 (stereo not given)
Activity (Cavia porcellus [6]): inactive | Activity (Cavia porcellus [7]): inactive | Activity (Cavia porcellus [8]): inactive | Activity (Cavia porcellus [5]): inactive

CC(C)(C)NCC(O)COC(=O)c1ccc2c(c1)OCO2.Cl (stereo not given)
Activity (Cavia porcellus [6]): inactive | Activity (Cavia porcellus [7]): inactive | Activity (Cavia porcellus [8]): inactive | pA2 [10]: 6.9

CC(C)NCC(O)c1ccc(NS(C)(=O)=O)cc1 (stereo not given) [SOTALOL]
Activity (Cavia porcellus [2]): 107 mmHg | Activity (Cavia porcellus [3]): 108 mmHg | Activity (Cavia porcellus [4]): 112 mmHg | pA2 [10]: 6.8

NNc1nncc2ccccc12
Activity (Cavia porcellus [5]): inactive

CNCC(O)COC(=O)c1ccc2c(c1)OCO2.O=C(O)C(=O)O (stereo not given)
Activity (Cavia porcellus [1]): < 10% | Activity (Cavia porcellus [6]): inactive | Activity (Cavia porcellus [7]): inactive | Activity (Cavia porcellus [8]): inactive | pA2 [10]: 5.3

CC(C)NCC(O)COc1cccc2ccccc12 (stereo not given) [PROPRANOLOL]
Activity (Cavia porcellus [2]): 117 mmHg | Activity (Cavia porcellus [3]): 119 mmHg | Activity (Cavia porcellus [4]): 141 mmHg
